The test system of test [1] is Androgenetic Alopecia (AGA) Mice Model. Nature of the test: In vivo hair regrowth efficacy in androgenetic alopecia (AGA) mice model. The conditions noted are these: DHT pre-treated male C57BL/6 mice, topical 3.5 μg/cm2/day once daily, day 20; DHT+vehicle group 3.5. The procedure:
Seven-week old male C57BL/6 mice (with black fur) purchased from BioLASCO Taiwan Co., Ltd. were grouped 6 to 8 mice per cage, and intraperitoneally administered with dihydrotestosterone (DHT) (1 mg/day, dissolved in corn oil) or corn oil alone once daily for four days. DHT is an agonist to androgen receptors, which can be used to induce symptoms of androgenetic alopecia.
Four days later, the dorsal region of the mice was depilated with hair removal cream (Nair Sensitive Hair Removal Cream, 100 mg to 200 mg per mouse). After hair removal, the skin color was recorded by photographs with a resolution of 4032*3024 pixel (day 1, D1). On the next day (D2), the test solutions of the compound 29 and compound 33 in a vehicle were prepared (3.5 μg/cm^2/day), and each test solution or vehicle alone was topically administered on the depilated region once daily for 20 days. The hair removal cream, the test solution and the vehicle were separately rubbed into the dorsal region of mice. The photographs underwent analysis using a self-developed software that utilized auto-image segmentation, primarily focusing on the border of the depilation area. This segmentation process involved classifying different regions within the images. […] The hair regrowth efficacy could be evaluated by the photographs and/or the skin color score.

Test [2] addresses T1, androgen receptor (Homo sapiens, UniProt P10275, T878A).
T1 construct: host or cells: LNCaP.FGC
Nature of the test: Androgen receptor degradation assay using Western blot analysis. The format is cell-based. The conditions noted are these: for remaining activity at 0.1 µM: 24 h, read-out: Androgen Receptor Remaining (%), LNCaP.FGC cells, 100 nM, 24 hr, normalized to GAPDH, untreated cells = 100%; for DC50: read-out: AR DC50 (concentration needed for 50% AR degradation), LNCaP.FGC cells, serial 10x dilutions from 100 nM. The essentials:
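LNCaP.FGC cells (2×10^5/well) treated with 10-fold serial dilutions in RPMI from 100 nM stock; untreated cells as negative control. AR Western signal normalized to GAPDH, expressed as % remaining versus untreated (100%). DC50 derived from calibration curve of serial dilutions.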
(In western blotting, separated proteins are transferred to a membrane and probed.)

T1 sequence (P10275 whole entry T878A): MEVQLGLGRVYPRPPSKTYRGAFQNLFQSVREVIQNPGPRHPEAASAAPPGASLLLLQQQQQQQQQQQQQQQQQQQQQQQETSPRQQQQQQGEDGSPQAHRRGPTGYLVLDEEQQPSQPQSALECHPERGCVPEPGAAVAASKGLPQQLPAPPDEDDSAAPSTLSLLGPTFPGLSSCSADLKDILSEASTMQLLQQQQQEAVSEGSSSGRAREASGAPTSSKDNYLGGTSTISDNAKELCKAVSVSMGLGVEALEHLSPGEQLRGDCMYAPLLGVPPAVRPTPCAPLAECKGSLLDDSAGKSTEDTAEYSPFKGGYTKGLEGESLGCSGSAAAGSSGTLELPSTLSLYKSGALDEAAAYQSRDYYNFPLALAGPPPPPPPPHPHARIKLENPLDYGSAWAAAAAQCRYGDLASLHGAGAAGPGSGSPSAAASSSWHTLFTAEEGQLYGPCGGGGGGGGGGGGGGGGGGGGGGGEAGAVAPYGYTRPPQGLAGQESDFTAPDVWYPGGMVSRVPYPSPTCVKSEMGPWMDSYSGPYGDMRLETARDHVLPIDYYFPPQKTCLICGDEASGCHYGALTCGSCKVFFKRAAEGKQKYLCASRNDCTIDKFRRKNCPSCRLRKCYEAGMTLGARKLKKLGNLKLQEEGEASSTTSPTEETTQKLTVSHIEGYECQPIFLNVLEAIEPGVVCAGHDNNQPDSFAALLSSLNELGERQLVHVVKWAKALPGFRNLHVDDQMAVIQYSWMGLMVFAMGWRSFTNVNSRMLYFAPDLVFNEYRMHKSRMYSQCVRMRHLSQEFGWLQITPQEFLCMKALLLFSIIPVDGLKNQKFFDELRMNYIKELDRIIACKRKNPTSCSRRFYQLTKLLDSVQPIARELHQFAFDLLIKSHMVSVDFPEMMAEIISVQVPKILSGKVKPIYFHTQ
T1 sequence (Q96SW2 whole entry partner): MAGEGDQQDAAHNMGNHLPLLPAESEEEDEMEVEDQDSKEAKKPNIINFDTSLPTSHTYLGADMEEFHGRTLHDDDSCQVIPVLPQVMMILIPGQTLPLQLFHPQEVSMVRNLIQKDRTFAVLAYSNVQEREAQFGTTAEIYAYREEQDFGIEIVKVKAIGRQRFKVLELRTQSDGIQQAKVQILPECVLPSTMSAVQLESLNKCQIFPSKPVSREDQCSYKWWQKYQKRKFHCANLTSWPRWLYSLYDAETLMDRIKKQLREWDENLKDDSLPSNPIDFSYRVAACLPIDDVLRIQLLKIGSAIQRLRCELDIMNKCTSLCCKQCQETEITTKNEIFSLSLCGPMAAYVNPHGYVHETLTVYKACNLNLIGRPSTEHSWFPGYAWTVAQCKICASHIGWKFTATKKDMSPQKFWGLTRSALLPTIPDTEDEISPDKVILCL

In the case of `CCn1c2c(c3ccc(OCCN4CCN(c5ccc(C(=O)N[C@H]6CC[C@H](Oc7ccc(C#N)c(Cl)c7)CC6)nn5)CC4)cc31)C(=O)N(C1CCC(=O)NC1=O)C2=O` (stereo partly shown) [Compound 33], the “average skin color score (1 = depilated skin, 8 = fully regrown hair)” value in test [1] is recorded as 6.5. Besides, in test [2], the remaining activity at 0.1 µM amounted to 27% and the DC50 fell in the range of 0.01 to 0.025 µM.

`CCn1c2c(c3ccc(OCCCN4CCN(c5ccc(C(=O)N[C@H]6CC[C@H](Oc7ccc(C#N)c(Cl)c7)CC6)nn5)CC4)cc31)C(=O)N(C1CCC(=O)NC1=O)C2=O` (stereo partly shown) [Compound 29]: the “average skin color score (1 = depilated skin, 8 = fully regrown hair)” value in test [1] amounted to 8. Moreover, in test [2], the remaining activity at 0.1 µM amounted to 31% and the DC50 was in the range of 0.01 to 0.025 µM.

For `CCn1c2c(c3ccc(OCCN4CCN(c5ccc(C(=O)N[C@H]6C(C)(C)[C@H](Oc7ccc(C#N)c(Cl)c7)C6(C)C)cc5)CC4)cc31)C(=O)N(C1CCC(=O)NC1=O)C2=O` (stereo partly shown) [Compound 30], in test [2], the remaining activity at 0.1 µM is 56%.

The record behind these values is patent US20250197409A1, “BIFUNCTIONAL COMPOUND AND PHARMACEUTICAL COMPOSITION COMPRISING THE BIFUNCTIONAL COMPOUND, AND METHOD FOR TREATING ANDROGEN RECEPTOR RELATED DISEASE BY USING THE SAME” (ANHORN MEDICINES CO., LTD., priority 2022, published 2025).
